Measured values: ChEMBL document CHEMBL1157348, “The alkaloid conessine and analogues as potent histamine H3 receptor antagonists” (J Med Chem, 2008)
The source made the active and inactive calls. The rule behind the calls is not given here.

Experiments:
Histamine H3 receptor [1] = target: T1, Histamine H3 receptor (Rattus norvegicus, UniProt Q9QYN8); experiment: Displacement of [3H]NAMH from rat full length histamine H3 receptor expressed in rat C6 cells; type: cell-based; conditions: read-out: Ki
Histamine H3 receptor [2] = target: T1, Histamine H3 receptor; experiment: Displacement of [3H]NAMH from histamine H3 receptor in rat cortex; conditions: read-out: Ki
Histamine H1 receptor = Histamine H1 receptor (Homo sapiens, UniProt P35367); experiment: Displacement of [3H]mepyramine from human histamine H1 receptor; conditions: read-out: Ki
Histamine H2 receptor = Histamine H2 receptor (Homo sapiens, UniProt P25021); experiment: Displacement of [3H]tiotidine from human histamine H2 receptor; conditions: read-out: Ki
[3] = target: T2, Alpha-2C adrenergic receptor (Homo sapiens, UniProt P18825); experiment: Displacement of [3H]rauwolscine from human adrenergic alpha 2C4 receptor expressed in mouse LTK- cells; type: cell-based
T2 sequence (P18825 whole entry): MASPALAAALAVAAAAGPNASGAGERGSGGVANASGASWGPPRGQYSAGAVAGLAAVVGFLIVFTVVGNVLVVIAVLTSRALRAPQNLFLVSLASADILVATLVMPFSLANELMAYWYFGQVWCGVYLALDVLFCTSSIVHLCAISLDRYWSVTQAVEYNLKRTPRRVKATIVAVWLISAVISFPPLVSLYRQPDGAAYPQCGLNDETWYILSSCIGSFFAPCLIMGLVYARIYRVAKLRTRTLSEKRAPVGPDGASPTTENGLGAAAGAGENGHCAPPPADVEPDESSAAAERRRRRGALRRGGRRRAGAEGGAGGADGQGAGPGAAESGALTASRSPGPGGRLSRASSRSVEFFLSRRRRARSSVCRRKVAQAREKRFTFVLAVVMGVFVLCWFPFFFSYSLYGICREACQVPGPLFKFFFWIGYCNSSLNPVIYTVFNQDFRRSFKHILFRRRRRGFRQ

[4] = Binding affinity at cholinergic receptor
[5] = target: T3, Muscarinic acetylcholine receptor M1 (Homo sapiens, UniProt P11229); experiment: Binding affinity at muscarinic M1 receptor
T3 sequence (P11229 whole entry): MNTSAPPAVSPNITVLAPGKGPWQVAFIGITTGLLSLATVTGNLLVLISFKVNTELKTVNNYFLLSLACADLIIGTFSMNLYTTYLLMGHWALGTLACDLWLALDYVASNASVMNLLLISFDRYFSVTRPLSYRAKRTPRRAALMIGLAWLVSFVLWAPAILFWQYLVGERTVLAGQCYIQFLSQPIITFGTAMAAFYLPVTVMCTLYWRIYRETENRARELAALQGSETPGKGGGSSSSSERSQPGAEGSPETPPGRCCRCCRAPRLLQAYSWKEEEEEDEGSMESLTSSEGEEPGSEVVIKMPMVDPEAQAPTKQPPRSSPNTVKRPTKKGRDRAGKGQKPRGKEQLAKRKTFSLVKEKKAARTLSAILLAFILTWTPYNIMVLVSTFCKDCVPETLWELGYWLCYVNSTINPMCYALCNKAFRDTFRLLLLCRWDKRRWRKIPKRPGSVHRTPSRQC

[6] = Half life in rat; type: ADME, organism-based; conditions: in vivo
[7] = Inhibition of CYP enzyme; type: ADME
Estrogen receptor = target: T4, Estrogen receptor (Homo sapiens, UniProt P03372); experiment: Binding affinity at estrogen receptor
T4 sequence (P03372 whole entry): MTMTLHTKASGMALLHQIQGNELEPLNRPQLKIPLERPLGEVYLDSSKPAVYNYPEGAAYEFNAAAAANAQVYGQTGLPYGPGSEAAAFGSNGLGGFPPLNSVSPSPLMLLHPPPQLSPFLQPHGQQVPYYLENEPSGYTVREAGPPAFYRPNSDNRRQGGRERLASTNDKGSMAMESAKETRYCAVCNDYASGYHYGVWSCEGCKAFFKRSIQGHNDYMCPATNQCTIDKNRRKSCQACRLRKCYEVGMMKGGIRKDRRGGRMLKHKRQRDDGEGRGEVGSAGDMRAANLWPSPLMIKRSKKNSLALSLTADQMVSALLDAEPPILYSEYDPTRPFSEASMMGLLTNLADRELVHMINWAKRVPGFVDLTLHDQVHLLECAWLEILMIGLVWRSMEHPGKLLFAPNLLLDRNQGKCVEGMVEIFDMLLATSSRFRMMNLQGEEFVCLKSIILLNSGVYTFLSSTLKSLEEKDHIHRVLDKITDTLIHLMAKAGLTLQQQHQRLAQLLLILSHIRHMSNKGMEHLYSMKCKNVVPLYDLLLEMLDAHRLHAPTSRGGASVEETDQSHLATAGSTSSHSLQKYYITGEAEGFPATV

Mus musculus = experiment: Increase in learning and memory performance in mouse at 0.01 mg/kg, ip after 24 hrs by passive avoidance test; type: functional, organism-based; parameters: dose 0.01 mg/kg
Histamine H3 receptor [8] = target: Histamine H3 receptor (Homo sapiens, UniProt Q9Y5N1); experiment: Antagonist activity at H3 receptor assessed as inhibition of [35S]gammaGTP binding relative to control
Sequence of Histamine H3 receptor (Homo sapiens, UniProt Q9Y5N1) (Q9Y5N1 whole entry): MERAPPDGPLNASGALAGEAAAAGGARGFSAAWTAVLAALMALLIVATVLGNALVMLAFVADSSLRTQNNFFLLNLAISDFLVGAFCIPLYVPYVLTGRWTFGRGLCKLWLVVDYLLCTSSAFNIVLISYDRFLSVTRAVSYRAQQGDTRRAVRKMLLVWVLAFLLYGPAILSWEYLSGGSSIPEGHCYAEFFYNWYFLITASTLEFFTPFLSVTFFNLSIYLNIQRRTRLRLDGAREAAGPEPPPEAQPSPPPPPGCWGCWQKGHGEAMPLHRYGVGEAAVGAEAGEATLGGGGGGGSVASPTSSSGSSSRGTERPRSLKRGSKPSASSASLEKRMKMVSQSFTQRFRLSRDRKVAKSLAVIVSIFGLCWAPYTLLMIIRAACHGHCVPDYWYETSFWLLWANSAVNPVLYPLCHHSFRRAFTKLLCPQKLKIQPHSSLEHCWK

T1 sequence (Q9QYN8 whole entry): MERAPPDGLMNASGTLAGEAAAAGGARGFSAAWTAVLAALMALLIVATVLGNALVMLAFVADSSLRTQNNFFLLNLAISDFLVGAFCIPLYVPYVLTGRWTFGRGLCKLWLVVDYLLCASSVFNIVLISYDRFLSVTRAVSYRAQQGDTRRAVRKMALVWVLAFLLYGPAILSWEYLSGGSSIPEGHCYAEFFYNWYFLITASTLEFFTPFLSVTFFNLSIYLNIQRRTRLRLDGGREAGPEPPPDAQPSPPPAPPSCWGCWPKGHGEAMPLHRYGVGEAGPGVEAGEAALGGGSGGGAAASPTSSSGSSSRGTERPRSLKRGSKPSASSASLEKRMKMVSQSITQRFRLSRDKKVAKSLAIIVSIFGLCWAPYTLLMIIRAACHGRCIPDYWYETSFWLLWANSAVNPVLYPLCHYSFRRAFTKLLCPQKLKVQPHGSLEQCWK
Sequence of Histamine H2 receptor (P25021 whole entry): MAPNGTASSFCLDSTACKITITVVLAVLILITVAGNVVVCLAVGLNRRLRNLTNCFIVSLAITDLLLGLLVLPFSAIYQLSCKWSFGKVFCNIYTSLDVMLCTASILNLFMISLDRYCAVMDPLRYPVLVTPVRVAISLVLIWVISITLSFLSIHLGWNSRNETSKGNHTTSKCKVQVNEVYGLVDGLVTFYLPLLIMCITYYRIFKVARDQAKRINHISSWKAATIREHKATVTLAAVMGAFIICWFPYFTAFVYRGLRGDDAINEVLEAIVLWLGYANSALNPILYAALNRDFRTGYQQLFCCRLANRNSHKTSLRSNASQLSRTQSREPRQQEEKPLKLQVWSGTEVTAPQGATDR
Sequence of Histamine H1 receptor (P35367 whole entry): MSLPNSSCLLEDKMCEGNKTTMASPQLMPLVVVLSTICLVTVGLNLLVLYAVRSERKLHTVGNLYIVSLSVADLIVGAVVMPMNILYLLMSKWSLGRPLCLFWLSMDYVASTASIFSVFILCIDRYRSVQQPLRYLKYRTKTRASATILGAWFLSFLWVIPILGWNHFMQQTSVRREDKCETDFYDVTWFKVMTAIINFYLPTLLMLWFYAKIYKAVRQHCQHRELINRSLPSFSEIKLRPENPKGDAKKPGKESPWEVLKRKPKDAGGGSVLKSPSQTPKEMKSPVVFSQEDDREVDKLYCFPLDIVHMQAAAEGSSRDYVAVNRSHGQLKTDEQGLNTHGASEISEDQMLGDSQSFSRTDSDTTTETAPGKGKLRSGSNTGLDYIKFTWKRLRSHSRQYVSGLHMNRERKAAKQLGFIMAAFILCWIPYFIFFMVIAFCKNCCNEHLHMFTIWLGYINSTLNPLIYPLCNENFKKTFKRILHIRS

With `CN[C@@H](C(=O)N(C)[C@H]1CC[C@@]2(C)C(=CC[C@H]3[C@@H]4CC[C@@H]5[C@H](C)N(C)C[C@@]54CC[C@@H]32)C1)C(C)C` as the molecule, how does the Ki (Histamine H3 receptor [1]) read?
The Ki was 2.57 nM.

And the Ki (Histamine H3 receptor [2])?
Its Ki is 2.57 nM.

What about the Ki (Histamine H1 receptor) of the same molecule?
The Ki was greater than 10000 nM.

What about the Ki (Histamine H2 receptor) of the same molecule?
Its Ki is greater than 10000 nM.

What about the Ki [3] of the same molecule?
The Ki was 77.6 nM.

What about the Ki [4] of the same molecule?
Its Ki is greater than 10000 nM.

What about the Ki [5] of the same molecule?
The Ki was 11 nM.

What about the half-life [6] of the same molecule?
The half-life was 77 h.

And the IC50 [7]?
The IC50 was greater than 10000 nM.

What about the Ki (Estrogen receptor) of the same molecule?
The Ki was greater than 30000 nM.

What about the Activity (Mus musculus) of the same molecule?
The Activity was “Active”.

What about the EC50 (Histamine H3 receptor [8]) of the same molecule?
The EC50 was 3.3 nM.
